Patent publication US20030212123A1, “COX-2 selective carprofen for treating pain and inflammation in dogs” (Pfizer Inc., priority 1997, published 2003)
Where two headings read alike, the source gives them in different places.

Key:
[1] = target: T1, canine COX-1 (Canis lupus familiaris, UniProt Q8HZR1); assay: Canine COX-1 activity: washed canine platelets, A23187-stimulated TXB2 by EIA; type: cell-based, dog; conditions: results of repeated tests averaged
T1 construct: from tissue; host or cells: washed platelets from donor dog blood
T1 sequence (Q8HZR1 28-603): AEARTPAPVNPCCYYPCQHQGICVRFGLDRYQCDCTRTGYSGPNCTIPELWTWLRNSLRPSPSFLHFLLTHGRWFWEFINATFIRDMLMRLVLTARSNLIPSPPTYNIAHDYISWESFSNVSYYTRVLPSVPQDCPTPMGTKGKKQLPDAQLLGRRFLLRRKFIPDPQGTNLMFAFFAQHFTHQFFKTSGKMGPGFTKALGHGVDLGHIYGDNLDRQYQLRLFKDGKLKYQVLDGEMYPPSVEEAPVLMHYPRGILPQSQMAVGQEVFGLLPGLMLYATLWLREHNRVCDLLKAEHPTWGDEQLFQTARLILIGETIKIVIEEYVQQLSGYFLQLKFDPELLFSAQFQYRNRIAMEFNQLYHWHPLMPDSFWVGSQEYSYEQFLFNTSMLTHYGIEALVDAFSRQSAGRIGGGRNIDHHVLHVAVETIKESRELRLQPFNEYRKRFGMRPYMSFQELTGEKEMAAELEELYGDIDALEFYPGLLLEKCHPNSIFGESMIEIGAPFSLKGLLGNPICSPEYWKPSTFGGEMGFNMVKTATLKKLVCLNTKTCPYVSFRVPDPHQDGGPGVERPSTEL
Procedure: Protocol for Evaluation of Canine COX-1 Activity
Test drug compounds were solubilized and diluted the day before the assay was to be conducted with 0.1 mL of DMSO/9.9 mL of Hank's balanced salts solution (HBSS), and stored overnight at 4° C. On the day that the assay was carried out, citrated blood was drawn from a donor dog, centrifuged at 190×g for 25 min at room temperature, and the resulting platelet-rich plasma was then transferred to a new tube for further procedures. The platelets were washed by centrifuging at 1500×g for 10 min at room temperature. The platelets were washed with platelet buffer comprising Hank's buffer (Ca free) with 0.2% bovine serum albumin (BSA) and 20 mM HEPES. […] Then, 100 μl of canine washed platelets were added and the samples were incubated at 37° C. for 15 min, after which the reaction was stopped by adding 20 μl of 77 mM EDTA. The plates were then centrifuged at 2000×g for 10 min at […], after which 50 μl of supernatant was assayed for thromboxane B2 (TXB2) by enzyme-immunoassay (EIA).

[2] = target: T2, COX-1 (Canis lupus familiaris, UniProt Q8HZR1); assay: Canine whole blood ex vivo COX-1 activity (A23187-stimulated TXB2), Example 2; type: in vivo, dog; conditions: for TXB2 Pg/mL/Well: group average; for inhibition at 2 mg/kg / inhibition at 10 mg/kg: dog, po, based on zero hour value, read-out: COX-1 activity Percent Inhibition
T2 construct: using an ex vivo procedure on canine whole blood; from tissue; host or cells: whole blood of dosed dogs, stimulated with calcium ionophore A23187
T2 sequence (Q8HZR1 28-603): T1 sequence (Q8HZR1 28-603)
Description: Plasma dilution was not factored in said data values.

[3] = Systemic clearance estimated from oral pharmacokinetics; type: in vivo, dog; conditions: estimated from pharmacokinetics after oral 2 mg/lb to dogs, F assumed 1, AUC extrapolated to infinity
Procedure: where Css is the steady state plasma carprofen concentration, R0 is the input rate, and Cl is the systemic clearance.
where F is the bioavailability (assumed to be 1 for an implant), D is the oral dose, and AUC is the average area under the plasma carprofen concentration vs. time curve, extrapolated to infinity.
A total dose of 3.6 mg/lb or 8.4 mg/lb or 36 mg/lb would be required for 3, 7, or 30 day therapy, respectively. In summary, an implant containing 8.4 mg carprofen per lb body weight, releasing carprofen at a rate of 50 μg per lb of body weight per hr, maintains a plasma carprofen concentration of 10 μg/mL for 7 days. This will maintain 80% COX-2 inhibition for 7 days.

[4] = target: COX-2 (Rattus norvegicus, UniProt P35355); assay: in vivo; conditions: read-out: COX-2 ED50
Procedure: In vivo cyclo-oxygenase selectivity was evaluated in rats by the method of Griffiths et al., described in Agents & Actions, 32, (1991), 313-320. […] Synovial fluid is secreted by the synovial membrane and is contained in joint cavities. During joint inflammation, COX-2 is induced in joint tissues and prostaglandin products accumulate in the synovial fluid. […] Inhibition of this stomach isozyme results in adverse gastrointestinal side effects.

[5] = target: T3, COX-1 (derived from bovine aortic endothelial cells) (Bos taurus, UniProt O62664); conditions: cited from earlier work
T3 construct: COX-1 (derived from bovine aortic endothelial cells); host or cells: bovine aortic endothelial cells (endogenous)
T3 sequence (O62664 25-600): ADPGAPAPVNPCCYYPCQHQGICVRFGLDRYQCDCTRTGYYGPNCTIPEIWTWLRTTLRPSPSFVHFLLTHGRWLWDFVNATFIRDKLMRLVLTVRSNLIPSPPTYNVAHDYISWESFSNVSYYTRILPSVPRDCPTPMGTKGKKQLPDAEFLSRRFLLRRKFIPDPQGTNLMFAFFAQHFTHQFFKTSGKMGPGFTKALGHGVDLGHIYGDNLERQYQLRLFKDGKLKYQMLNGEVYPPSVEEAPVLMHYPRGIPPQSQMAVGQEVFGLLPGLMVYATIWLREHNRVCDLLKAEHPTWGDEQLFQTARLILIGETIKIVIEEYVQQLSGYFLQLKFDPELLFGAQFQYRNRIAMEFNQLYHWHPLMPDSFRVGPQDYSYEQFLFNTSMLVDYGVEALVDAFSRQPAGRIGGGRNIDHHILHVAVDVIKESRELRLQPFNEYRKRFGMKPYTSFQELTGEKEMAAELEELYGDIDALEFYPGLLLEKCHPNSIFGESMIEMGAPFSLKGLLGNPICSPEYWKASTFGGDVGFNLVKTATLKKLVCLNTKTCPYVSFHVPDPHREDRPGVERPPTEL

[6] = target: COX-2 (derived from lipopolysaccharide stimulated J774.2 macrophages) (Mus musculus, UniProt Q05769); conditions: cited from earlier work
COX-2 (derived from lipopolysaccharide stimulated J774.2 macrophages), sequence (Q05769 18-604): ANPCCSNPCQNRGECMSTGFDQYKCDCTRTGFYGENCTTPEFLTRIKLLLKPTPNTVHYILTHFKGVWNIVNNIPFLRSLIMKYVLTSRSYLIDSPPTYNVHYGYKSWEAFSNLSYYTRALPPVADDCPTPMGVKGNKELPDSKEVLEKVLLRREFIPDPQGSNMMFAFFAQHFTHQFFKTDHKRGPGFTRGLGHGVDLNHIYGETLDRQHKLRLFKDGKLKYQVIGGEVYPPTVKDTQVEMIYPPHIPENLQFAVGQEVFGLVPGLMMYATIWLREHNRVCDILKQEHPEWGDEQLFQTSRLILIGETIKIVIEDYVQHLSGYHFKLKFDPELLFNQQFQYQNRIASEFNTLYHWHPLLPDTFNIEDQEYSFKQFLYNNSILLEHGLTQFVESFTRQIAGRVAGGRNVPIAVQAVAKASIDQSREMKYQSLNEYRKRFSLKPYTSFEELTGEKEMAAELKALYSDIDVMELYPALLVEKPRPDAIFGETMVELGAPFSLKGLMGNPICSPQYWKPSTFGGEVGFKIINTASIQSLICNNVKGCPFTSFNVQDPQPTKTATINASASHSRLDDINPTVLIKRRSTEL

COX-2, sequence (P35355 18-604): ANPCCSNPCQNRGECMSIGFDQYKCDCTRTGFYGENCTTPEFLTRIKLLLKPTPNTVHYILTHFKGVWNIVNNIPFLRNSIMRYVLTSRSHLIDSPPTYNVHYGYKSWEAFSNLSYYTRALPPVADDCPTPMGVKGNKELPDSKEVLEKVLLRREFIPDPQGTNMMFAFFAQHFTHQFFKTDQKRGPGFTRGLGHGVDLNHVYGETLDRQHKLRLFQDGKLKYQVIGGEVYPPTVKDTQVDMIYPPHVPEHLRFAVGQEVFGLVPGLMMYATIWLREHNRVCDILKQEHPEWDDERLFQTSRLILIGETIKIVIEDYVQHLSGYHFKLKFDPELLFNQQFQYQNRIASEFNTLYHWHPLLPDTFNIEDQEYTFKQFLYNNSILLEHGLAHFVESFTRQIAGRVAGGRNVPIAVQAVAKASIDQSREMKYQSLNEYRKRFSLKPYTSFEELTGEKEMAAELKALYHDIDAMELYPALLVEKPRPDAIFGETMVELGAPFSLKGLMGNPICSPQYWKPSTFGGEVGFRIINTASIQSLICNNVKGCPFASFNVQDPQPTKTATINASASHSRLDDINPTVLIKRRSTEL

For `CC(C(=O)O)c1ccc2c(c1)[nH]c1ccc(Cl)cc12` (racemic) [Carprofen (rac.), 6-chloro-α-methyl-9H-carbazole-2-acetic acid], the IC50 [1] was 13.2 µM, the “TXB2 Pg/mL/Well” value ([2]; 2 mg/kg PO capsule, 0-hour (pre-dose)) was 72 Pg/mL/Well and the “TXB2 Pg/mL/Well” value ([2]; 2 mg/kg PO capsule, 1-hour post-dose) was 75 Pg/mL/Well. The “TXB2 Pg/mL/Well” value ([2]; 2 mg/kg PO capsule, 3-hour post-dose) was 66 Pg/mL/Well, the “TXB2 Pg/mL/Well” value ([2]; 2 mg/kg PO capsule, 6-hour post-dose) was 46 Pg/mL/Well and the “TXB2 Pg/mL/Well” value ([2]; 10 mg/kg PO capsule, 0-hour (pre-dose)) was 51 Pg/mL/Well. For the same compound, the “TXB2 Pg/mL/Well” value ([2]; 10 mg/kg PO capsule, 1-hour post-dose) was 31 Pg/mL/Well, the “TXB2 Pg/mL/Well” value ([2]; 10 mg/kg PO capsule, 3-hour post-dose) was 6 Pg/mL/Well and the “TXB2 Pg/mL/Well” value ([2]; 10 mg/kg PO capsule, 6-hour post-dose) was 7 Pg/mL/Well. It also gave an inhibition at 2 mg/kg ([2]; 2 mg/kg PO capsule, 1-hour) of 0%, an inhibition at 2 mg/kg ([2]; 2 mg/kg PO capsule, 3-hour) of 8% and an inhibition at 2 mg/kg ([2]; 2 mg/kg PO capsule, 6-hour) of 36%. The inhibition at 10 mg/kg ([2]; 10 mg/kg PO capsule, 1-hour) was 39%, the inhibition at 10 mg/kg ([2]; 10 mg/kg PO capsule, 3-hour) was 88% and the inhibition at 10 mg/kg ([2]; 10 mg/kg PO capsule, 6-hour) was 86%. The “systemic clearance Cl” value [3] was 5 mL/hr per lb body weight, the ED50 [4] was 0.63 mg/kg and the IC50 ([5]; as shown by Battistini et al., read-out: IC50 (μM) COX-1) was 11 µM. The IC50 ([5]; n=9, bovine aortic endothelial cells, read-out: IC50 (μg/mL) COX-1 (converted)) was 11 µM, the IC50 ([6]; read-out: IC50 (μM) COX-2, as shown by Battistini et al.) was 11 µM and the IC50 ([6]; read-out: IC50 (μg/mL) COX-2, n=9, LPS stimulated J774.2 macrophages) was 11 µM.
